Data taken from US9586056B2, “Combination therapy for treating cancer and method for treating cancer using a combination therapy” (Haniva LLC, priority 2014, dated 2017).

Columns and labels:
Type in all cases: cell-based
1205Lu C×43 (C) = test: Number of viable cells after treatment (FIG. 11); conditions: normoxia; tirapazamine at 28.5 μM
Protocol: (§1) The cell lines shown in FIG. 11 include: 1205Lu plasmid (P), 1205Lu […]), 1205Lu-[…] (T). […] The cells were treated with non-thermal plasma (NTP), tirapazamine at 28.5 μM (TPZ), or the combination (NTP/TPZ). […] (T) but not for 1205Lu plasmid (P). […] Under […], all treatments (NTP, TPZ and NTP/TPZ) cause a decrease in cell number from the original number of cells (6×10^6) to approximately (3×10^6) for all melanoma cell lines. Under hypoxia, TPZ causes a decrease in cell number from the original number of cells (6×10^6) to approximately (1.2-0.6×10^5). Under hypoxia, NTP/TPZ causes a decrease from the original number of cells (6×10^6) to approximately (0.1-0.03×10^5). […] In addition, the target area of the NTP torch dramatically increases under these conditions. The ROS generated by NTP and tirapazamine induces the bystander effect and promotes the spreading of cell death signals well beyond the area of the plasma treatment. Upon treatment for 24 hours with NTP+/- tirapazamine at normal conditions (normoxia) or hypoxic conditions (hypoxia), the combination of NTP+/- tirapazamine enhances cell death under hypoxia. Furthermore, the area in which the plasma torch affects the cells increases only in the cells overexpressing the functional gap junctions.

1205Lu-T154A (T) = test: Number of viable cells after treatment (FIG. 11); conditions: normoxia; tirapazamine at 28.5 μM
Protocol: as §1

1205Lu plasmid (P) = test: Number of viable cells after treatment (FIG. 11); conditions: normoxia; tirapazamine at 28.5 μM
Protocol: as §1

1205Lu melanoma cells = test: IC50 of tirapazamine for melanoma cells; conditions: Homo sapiens
1205Lu cells = test: Photographic assessment of cell death (FIGS. 12 and 13)
Source text: The broken lines shown in FIGS. 12 and 13 demarcate live cells from dead cells. The portions shown with asterisks represent the dead cells.

HIF1α = HIF1α expression under hypoxia (FIG. 14)
Source text: HIF1α is a transcription factor that enhances transcription of many metastasis related genes. The expression of HIF1α usually increases under hypoxic conditions.

With Nc1n[n+]([O-])c2ccccc2[n+]1[O-] [TPZ, 3-Aminobenzo[e][1,2,4]triazine 1,4-dioxide] the “change in viable cells” value (1205Lu C×43 (C)) was “decrease in viable cells”, the “change in viable cells” value (1205Lu-T154A (T)) was “decrease in viable cells” and the “change in viable cells” value (1205Lu plasmid (P)) was “decrease in viable cells”. For the same compound, the IC50 (1205Lu melanoma cells) was 28.5 µM, the “cell toxicity (FIG. 13)” value (1205Lu cells; hypoxia) was “induces cell toxicity only under hypoxic conditions” and the “effect on cells (FIG. 12)” value (1205Lu cells; normal oxygen conditions) was “no effect”. The “expression of HIF1α compared with control” value (HIF1α; cell line C) was “decrease”, the “expression of HIF1α compared with control” value (HIF1α; cell line P) was “increase” and the “expression of HIF1α compared with control” value (HIF1α; cell line T) was “increase”.
